This note sets out measurements from patent US9464042B2, “Biguanide derivative, preparation method thereof, and pharmaceutical composition containing same as an active ingredient” (IMMUNOMET THERAPEUTICS INC., priority 2010, dated 2016).

The structures appear in SMILES notation. Where a name gives a salt, the structure may show the parent alone. Some results are limits rather than exact numbers.

For one series, the system named is HCT116 cells. Nature of the series: Inhibition of cancer cell proliferation (MTT, GIC50). The format is cell-based. The following applies: Homo sapiens, HCT-116, 48 h incubation. As for the experimental part: HCT116 cells derived from human colorectal cancer were used, and a cancer cell proliferation inhibition effect of a biguanide derivative was confirmed by measuring a concentration value (cell growth inhibition concentration, GIC50) at which cell growth was inhibited 50% using a 3-(4,5-dimethylthiazol-2-yl)-2,5-diphenyltetrazolium bromide (MTT) reagent.
First, the HCT116 cells were put on a 96-well plate and incubated for 24 hours to each have cell count of approximately 5000 in a DMEM medium containing 10% fetal bovine serum. Subsequently, to obtain the GIC50 value of each compound, 100 μM (or 200 μM), 25 μM, 6.25 μM, 1.56 μM or 0.39 μM of the compound was treated to each culture medium and then incubated for 48 hours. To confirm living cells after treatment with the compound, MTT was added to each culture medium and further incubated for 3 hours. Generated formazane crystal was dissolved using dimethyl sulfoxide (DMSO), and absorbance of the solution was measured at 560 nm. After the 48-hour incubation, a ratio of […] synthesized in the examples was indicated as cell viability (%) according to each administered concentration. A cell viability curve was plotted using the cell viability (%) and the calculated concentration value (GIC50) of the compound, at which 50% of the growth was inhibited, to confirm an effect on the inhibition of cancer cell proliferation.

The next series deals with AMPK. Nature of the series: AMPK activation (AMPKα immunoassay kit, phospho-Thr172) in MCF7 cells. On the set-up: AMPK Activation 50 uM (degree of phosphorylated AMPKα Thr172): unit not given here. The following applies: 24 h; for AMPK Activation 50 uM (degree of phosphorylated AMPKα Thr172): 50 uM compound. The format is cell-based, human. As for the experimental part: The MCF7 cells were put on a 6-well plate and incubated in a DMEM medium containing 10% fetal bovine serum in an incubator to which 5% CO2 was supplied to have a cell count of approximately 5×10^5. 50 μM of the derivatives synthesized in the examples were treated to the each culture medium, and the cells were incubated for 24 hours. Subsequently, the cells were lysed by a method presented in the operation manual of the AMPKα immunoassay kit, and 20 μg of cell lysates were yielded through protein assay.

[1] abbreviates: 50 uM compound vs 0 (no compound).

A word on the IC50: it is the concentration at which inhibition is half-maximal. As for `CCCC/N=C(/NC(=N)N)NC1CCCCCC1.Cl` [Example 1, N4-butyl-N5-cycloheptyl biguanide hydrochloride], the IC50 in the series with HCT116 cells is > 200 µM. In addition, in the series on AMPK (setting [1]), the “AMPK Activation Fold” value is 4.0. Besides, the “AMPK Activation 50 uM (degree of phosphorylated AMPKα Thr172)” value (from here on “AMPK Activation 50 uM”) in the series with AMPK was 21.1.
For orientation: melting point means the temperature, or range, at which the solid turns liquid. Molecule `CCC/N=C(\NC)NC(=N)N.Cl` [Example 2, N4-propyl-N5-methyl biguanide hydrochloride] displayed a melting point of 170 to 171 °C. For the same molecule, the 50% inhibitory concentration (IC50) in the series with HCT116 cells is > 100 µM. For the same molecule, the “AMPK Activation Fold” value in the series with AMPK (setting [1]) was 1.0. Besides, in the series on AMPK, the “AMPK Activation 50 uM” value turned out to be 6.5.
`CCCCCC/N=C(\NC)NC(=N)N.Cl` [Example 3, N4-hexyl-N5-methyl biguanide hydrochloride]: the 50% inhibitory concentration (IC50) in the series with HCT116 cells is > 100 µM. The “AMPK Activation Fold” value in the series on AMPK (setting [1]) came out at 5.2. For the same molecule, in the series with AMPK, the “AMPK Activation 50 uM” value is on record as 35.5.
For the molecule `C=CC/N=C(\NC)NC(=N)N.Cl` [Example 4, N4-allyl-N5-methyl biguanide hydrochloride], the melting point was 156 to 157 °C. In addition, the concentration for half-maximal inhibition (IC50) with HCT116 cells is > 100 µM. In the series on AMPK (setting [1]), the “AMPK Activation Fold” value stood at 0.8. Besides, in the series with AMPK, the “AMPK Activation 50 uM” value is given as 5.3.
For `CN/C(=N\Cc1ccccc1)NC(=N)N.Cl` [Example 5, N4-benzyl-N5-methyl biguanide hydrochloride], in that order: 113 to 115 °C, > 100 µM, 1.6 and 10.8.
The molecule `CN/C(=N\CCc1ccccc1)NC(=N)N.Cl` [Example 6, N4-(phenetyl)-N5-methyl biguanide hydrochloride] yielded a melting point of 126 to 127 °C. Moreover, the IC50 in the series with HCT116 cells is > 100 µM. Further, the “AMPK Activation Fold” value in the series on AMPK (setting [1]) is reported as 4.9. Moreover, the “AMPK Activation 50 uM” value with AMPK is on record as 33.1.
`CCCCCC/N=C(/NC(=N)N)NC(C)CC.Cl` (stereo not drawn) [Example 7, N4-hexyl-N5-(butane-2-yl)biguanide hydrochloride] displayed a melting point of 175 to 176 °C. In addition, the 50% inhibitory concentration (IC50) in the series with HCT116 cells is > 100 µM. For the same molecule, in the series on AMPK (setting [1]), the “AMPK Activation Fold” value is recorded as 5.8. The “AMPK Activation 50 uM” value in the series with AMPK worked out at 39.5.
For `CCC(C)N/C(=N\CCc1ccccc1)NC(=N)N.Cl` (stereo not drawn) [Example 8, N4-(phenetyl)-N5-(butyl-2-yl)biguanide hydrochloride], in that order: 181 to 183 °C, > 100 µM, 2.7 and 18.4.
For `CCCC/N=C(\NCCCC)NC(=N)N.Cl` [Example 9, N4,N5-dibutyl biguanide hydrochloride], in that order: 112 to 114 °C, > 100 µM, 3.8 and 25.6.
Consider `CCCCCC/N=C(\NCCCC)NC(=N)N.Cl` [Example 10, N4-hexyl-N5-butyl biguanide hydrochloride], for which, in the series on HCT116 cells, the IC50 was found to be 30.3 µM. Further, the “AMPK Activation Fold” value in the series on AMPK (setting [1]) is given as 7.2. In addition, the “AMPK Activation 50 uM” value in the series with AMPK is 38.1.
In turn, `CCCCN/C(=N\C(C)C)NC(=N)N.Cl` [Example 11, N4-isopropyl-N5-butyl biguanide hydrochloride] gave a melting point of 173 to 175 °C. Moreover, the IC50 in the series on HCT116 cells was > 100 µM. The “AMPK Activation Fold” value in the series on AMPK (setting [1]) is recorded as 0.6. In the series with AMPK, the “AMPK Activation 50 uM” value is 4.2.
For `CCCCN/C(=N\C(C)CC)NC(=N)N.Cl` (stereo not drawn) [Example 12, N4-(butane-2-yl)-N5-butyl biguanide hydrochloride], in that order: 193 to 194 °C, > 200 µM, 1.5 and 8.1.
For the molecule `C=CC/N=C(\NCCCC)NC(=N)N.Cl` [Example 13, N4-allyl-N5-butyl biguanide hydrochloride], the 50% inhibitory concentration (IC50) in the series with HCT116 cells is > 200 µM. In addition, the “AMPK Activation Fold” value with AMPK (setting [1]) came to 3.9. The “AMPK Activation 50 uM” value in the series with AMPK is on record as 20.5.
As to `CCCCN/C(=N\Cc1ccco1)NC(=N)N.Cl` [Example 15, N4-(furane-2-yl)methyl-N5-butyl biguanide hydrochloride], in the series on HCT116 cells, the IC50 was > 200 µM. Besides, the “AMPK Activation Fold” value with AMPK (setting [1]) is given as 3.7. Besides, the “AMPK Activation 50 uM” value in the series on AMPK was determined as 19.4.
`CCCCN/C(=N\Cc1ccccc1)NC(=N)N.Cl` [Example 18, N4-benzyl-N5-butyl biguanide hydrochloride]: the IC50 in the series with HCT116 cells was > 200 µM. Further, the “AMPK Activation Fold” value in the series with AMPK (setting [1]) is listed as 1.8. For the same molecule, the “AMPK Activation 50 uM” value in the series on AMPK came to 9.6.
In the series on HCT116 cells, `CCCCN/C(=N\Cc1cccc(Cl)c1)NC(=N)N.Cl` [Example 20, N4-(3-chloro)benzyl-N5-butyl biguanide hydrochloride] gave a half-inhibitory concentration (IC50) of 54.1 µM. In the series with AMPK (setting [1]), the “AMPK Activation Fold” value is given as 1.5. Further, the “AMPK Activation 50 uM” value with AMPK was 7.2.
As for `CCCCN/C(=N\Cc1ccc(Cl)cc1)NC(=N)N.Cl` [Example 21, N4-(4-chloro)benzyl-N5-butyl biguanide hydrochloride], the melting point is 113 to 115 °C. Besides, in the series on HCT116 cells, the IC50 was 13.5 µM.
For the molecule `CCCCN/C(=N\Cc1ccc(OC)cc1)NC(=N)N.Cl` [Example 22, N4-(4-methoxyl)benzyl-N5-butyl biguanide hydrochloride], the IC50 in the series with HCT116 cells is > 100 µM. In addition, the “AMPK Activation Fold” value with AMPK (setting [1]) is listed as 4.4. In addition, the “AMPK Activation 50 uM” value in the series with AMPK came to 29.9.
For `CCCCN/C(=N\Cc1ccc(Cl)c(Cl)c1)NC(=N)N.Cl` [Example 23, N4-(3,4-dichloro)benzyl-N5-butyl biguanide hydrochloride], in that order: 35.3 µM, 7.8 and 19.5.
The molecule `CCCCN/C(=N\CCc1ccc(Cl)cc1)NC(=N)N.Cl` [Example 25, N4-(4-chloro)phenethyl)-N5-butyl biguanide hydrochloride] came in with an IC50 in the series on HCT116 cells of 26.5 µM.
Molecule `CCCCN/C(=N\CCc1ccc(Cl)cc1)NC(=N)N.Cl` [Example 25] returned a melting point of 123 to 124 °C. Besides, the “AMPK Activation Fold” value with AMPK (setting [1]) came out at 6.7. Besides, the “AMPK Activation 50 uM” value in the series with AMPK is 16.7.
On to `C=CC/N=C(\NCc1ccccc1)NC(=N)N.Cl` [Example 29, N4-allyl-N5-benzyl biguanide hydrochloride], for which the IC50 with HCT116 cells was > 200 µM. Moreover, the “AMPK Activation Fold” value in the series with AMPK (setting [1]) is recorded as 1.0. Moreover, the “AMPK Activation 50 uM” value with AMPK is given as 5.5.
For `Cl.N=C(N)N/C(=N/C1CCCCCC1)NCc1ccccc1` [Example 31, N4-cycloheptyl-N5-benzyl biguanide hydrochloride] the same measures were > 100 µM, 6.6 and 44.6.
`CCCC/N=C(\NCCc1ccccc1)NC(=N)N.Cl` [Example 33, N4-butyl-N5-(phenethyl)biguanide hydrochloride] registered a melting point of 178 to 179 °C. The molecule further had an IC50 in the series on HCT116 cells of 6.5 µM.
Regarding `Cl.N=C(N)N/C(=N/c1ccccc1)NCCc1ccccc1` [Example 35, N4-phenyl-N5-(phenethyl)biguanide hydrochloride], the melting point was 232 to 233 °C. The “AMPK Activation Fold” value in the series on AMPK (setting [1]) is reported as 1.3. The “AMPK Activation 50 uM” value with AMPK is 9.0.
With `Cl.N=C(N)N/C(=N/c1ccc(Cl)cc1)NCCc1ccccc1` [Example 36, N4-(4-chloro)phenyl-N5-(phenethyl)biguanide hydrochloride], the melting point was 115 to 116 °C. The same molecule had an IC50 with HCT116 cells of 9.3 µM.
Turning to `Cl.N=C(N)N/C(=N/Cc1ccco1)NCCc1ccccc1` [Example 38, N4-(furan-2-yl)methyl-N5-(phenethyl)biguanide hydrochloride], the IC50 in the series on HCT116 cells was > 100 µM. In addition, the “AMPK Activation Fold” value with AMPK (setting [1]) came out at 3.2. Also, in the series with AMPK, the “AMPK Activation 50 uM” value amounted to 22.0.
For `COc1ccc(C/N=C(/NC(=N)N)N(C)Cc2cccc3ccccc23)cc1.Cl` [Example 46, N4-(4-methoxyl)benzyl-N5,N5-(1-naphthylmethyl)-(methyl) biguanide hydrochloride] the same measures were 99.1 µM, 3.7 and 19.5.
Take `CN(C)C(=N)N=C(N)N` [Metformin HCl, reference compound]: the “AMPK Activation Fold” value with AMPK (1 mM metformin vs 0 (no compound)) stood at 3.2. The “AMPK Activation (@ 1 mM) (degree of phosphorylated AMPKα Thr172)” value with AMPK (1 mM metformin) came out at 21.5.
